Measured values from publication PMC8876135, “The Catestatin-Derived Peptides Are New Actors to Fight the Development of Oral Candidosis” (International Journal of Molecular Sciences, 2022).
≈ marks a conversion by molar mass, not a printed value. Non-standard residues stand in square brackets, D forms with d. Residues, ends and D or L forms follow the SMILES beside them. *: point of attachment. Palmitoyl = CCCCCCCCCCCCCCCC(=O)*

Key:
Candida albicans “R” = format: cell-based; settings: 24 h, pH 5.6
Protocol: (§1) Strains of Candida albicans, Candida tropicalis and Candida glabrata, frequently found in cases of oral candidosis, were tested for L-bCtl and D-bCtl antimicrobial activity. The sensitive strain of C. albicans (ATCC 10231^TM) was provided by ATCC (Manassas, VA, USA). The resistant strain of C. albicans, the sensitive and resistant strains of C. tropicalis as well as the sensitive and resistant strains of C. glabrata were kindly provided by Dr Valérie Letscher-Bru (Laboratory of Parasitolology and Medical Mycology, Strasbourg, France).
(§2) Each Candida strain was first plated on agar plates and cultured for 24 h at 37 °C. After incubation, one colony per isolate was transferred into 5 mL of Sabouraud medium pH 5.6 (Sigma-Aldrich, Le Pont-de-Claix, France) supplemented with tetracycline (10 μg/mL) and cefotaxime (10 μg/mL) and incubated aerobically under agitation at 37 °C for 24 h. The resulting cultures were resuspended at an absorbance of 0.001 (OD600nm = 0.001) in Sabouraud medium. The OD600nm was evaluated with a spectrophotometer (BIO-RAD Smatspec^TM plus, Schiltigheim, France). In preliminary experiments, we tested RPMI-1640 culture and Sabouraud media. Similar data were obtained but the experiments were more reproducible with Sabouraud than with RPMI1640. Therefore, Sabouraud medium was used in the present study.
(§3) The yeasts (OD600nm = 0.001) were then plated on 96-well microplates and treated with different concentrations of the peptides of interest. After 24 h incubation at 37 °C under agitation, yeast growth was assessed by optical density (OD600nm) using a microplate spectrophotometer (Multiscan EX, Thermo Fisher Scientific, Waltham, MA, USA). All tests were performed in triplicate. The MIC (minimal inhibitory concentration), defined as the lowest concentration of drug able to inhibit 100% of the growth of a pathogen, was determined for the different peptides against all previously described Candida strains, using a modified Gompertz model.

[1] = tested on: Candida albicans “S” (ATCC 10231); format: cell-based; settings: ATCC 10231, 24 h, pH 5.6
Protocol: as §1, §2, §3

SMILES	MIC C. albicans “R” (Candida albicans “R”)	MIC C. albicans “S” [1]
CC(=O)N[C@@H](CC(C)C)C(=O)N[C@@H](CO)C(=O)N[C@@H](Cc1ccccc1)C(=O)N[C@@H](CCCNC(=N)N)C(=O)N[C@@H](C)C(=O)N[C@@H](CCCNC(=N)N)C(=O)O [Peptide P7] (Ac-LSFRAR-OH)	>100 µg/mL	>100 µg/mL
CCCCCCCCCCCCCCCC(=O)N[C@@H](CC(C)C)C(=O)N[C@@H](CO)C(=O)N[C@@H](Cc1ccccc1)C(=O)N[C@@H](CCCNC(=N)N)C(=O)O [Peptide P11] (Palmitoyl-LSFR-OH; C-terminus assumed)	>100 µg/mL	>100 µg/mL
CSCC[C@H](NC(=O)[C@H](CO)NC(=O)[C@@H](N)CCCNC(=N)N)C(=O)N[C@@H](CCCNC(=N)N)C(=O)N[C@@H](CC(C)C)C(=O)N[C@@H](CO)C(=O)N[C@@H](Cc1ccccc1)C(=O)N[C@@H](CCCNC(=N)N)C(=O)O [Peptide P2] (H-RSMRLSFR-OH)	100 µg/mL (≈ 95 µM)	50 µg/mL (≈ 47.5 µM)
CC(C)C[C@@H](N)C(=O)N[C@H](CO)C(=O)N[C@H](Cc1ccccc1)C(=O)N[C@H](CCCNC(=N)N)C(=O)O [Peptide P9] (H-[dL][dS][dF][dR]-OH; N-terminus and C-terminus assumed)	>100 µg/mL	>100 µg/mL
CSCC[C@H](NC(=O)[C@H](CO)NC(=O)[C@H](CCCNC(=N)N)NC(C)=O)C(=O)N[C@@H](CCCNC(=N)N)C(=O)N[C@@H](CC(C)C)C(=O)N[C@@H](CO)C(=O)N[C@@H](Cc1ccccc1)C(=O)N[C@@H](CCCNC(=N)N)C(=O)O [Peptide P3] (Ac-RSMRLSFR-OH)	>100 µg/mL	>100 µg/mL
CC(=O)N[C@@H](CCCCN)C(=O)N[C@@H](CC(C)C)C(=O)N[C@@H](CO)C(=O)N[C@@H](Cc1ccccc1)C(=O)N[C@@H](CCCNC(=N)N)C(=O)N[C@@H](C)C(=O)O [Peptide P17] (Ac-KLSFRA-OH)	>100 µg/mL	>100 µg/mL
CCCCCCCCCCCCCCCC(=O)N[C@@H](CCSC)C(=O)N[C@@H](CCCCN)C(=O)N[C@@H](CC(C)C)C(=O)N[C@@H](CO)C(=O)N[C@@H](Cc1ccccc1)C(=O)N[C@@H](CCCNC(=N)N)C(=O)O [Peptide P19] (Palmitoyl-MKLSFR-OH; C-terminus assumed)	>100 µg/mL	>100 µg/mL
CC(C)C[C@H](NC(=O)[C@@H](N)CCCNC(=N)N)C(=O)N[C@@H](CO)C(=O)N[C@@H](Cc1ccccc1)C(=O)N[C@@H](CCCNC(=N)N)C(=O)N[C@@H](C)C(=O)N[C@@H](Cc1c[nH]c2ccccc12)C(=O)O [Peptide P5] (H-RLSFRAW-OH)	>100 µg/mL	>100 µg/mL
CSCC[C@H](NC(=O)[C@H](CO)NC(=O)[C@@H](N)CO)C(=O)N[C@@H](CCCCN)C(=O)N[C@@H](CC(C)C)C(=O)N[C@@H](CO)C(=O)N[C@@H](Cc1ccccc1)C(=O)N[C@@H](CCCNC(=N)N)C(=O)N[C@@H](C)C(=O)N[C@@H](CCCNC(=N)N)C(=O)N[C@@H](C)C(=O)N[C@@H](Cc1ccc(O)cc1)C(=O)NCC(=O)N[C@@H](Cc1ccccc1)C(=O)N[C@@H](CCCNC(=N)N)C(=O)O [hCtl] (H-SSMKLSFRARAYGFR-OH)	50 µg/mL (≈ 28.1 µM)	50 µg/mL (≈ 28.1 µM)
CCCCCCCCCCCCCCCC(=O)N[C@@H](CCCNC(=N)N)C(=O)N[C@@H](CO)C(=O)N[C@@H](CCSC)C(=O)N[C@@H](CCCNC(=N)N)C(=O)N[C@@H](CC(C)C)C(=O)N[C@@H](CO)C(=O)N[C@@H](Cc1ccccc1)C(=O)N[C@@H](CCCNC(=N)N)C(=O)O [Peptide P4] (Palmitoyl-RSMRLSFR-OH; C-terminus assumed)	>100 µg/mL	>100 µg/mL
CC(=O)N[C@@H](CC(C)C)C(=O)N[C@@H](CO)C(=O)N[C@@H](Cc1ccccc1)C(=O)N[C@@H](CCCNC(=N)N)C(=O)O [Peptide P10] (Ac-LSFR-OH)	>100 µg/mL	>100 µg/mL
CSCC[C@H](NC(=O)[C@H](CO)NC(=O)[C@@H](N)CO)C(=O)N[C@@H](CCCCN)C(=O)N[C@@H](CC(C)C)C(=O)N[C@@H](CO)C(=O)N[C@@H](Cc1ccccc1)C(=O)N[C@@H](CCCNC(=N)N)C(=O)O [Peptide P14] (H-SSMKLSFR-OH)	>100 µg/mL	>100 µg/mL
CSCC[C@H](N)C(=O)N[C@@H](CCCCN)C(=O)N[C@@H](CC(C)C)C(=O)N[C@@H](CO)C(=O)N[C@@H](Cc1ccccc1)C(=O)N[C@@H](CCCNC(=N)N)C(=O)O [Peptide P18] (H-MKLSFR-OH)	>100 µg/mL	>100 µg/mL
CCCCCCCCCCCCCCCC(=O)N[C@@H](CO)C(=O)N[C@@H](CO)C(=O)N[C@@H](CCSC)C(=O)N[C@@H](CCCCN)C(=O)N[C@@H](CC(C)C)C(=O)N[C@@H](CO)C(=O)N[C@@H](Cc1ccccc1)C(=O)N[C@@H](CCCNC(=N)N)C(=O)O [Peptide P16] (Palmitoyl-SSMKLSFR-OH; C-terminus assumed)	>100 µg/mL	>100 µg/mL
CC(C)C[C@H](N)C(=O)N[C@@H](CO)C(=O)N[C@@H](Cc1ccccc1)C(=O)N[C@@H](CCCNC(=N)N)C(=O)O [Peptide P8] (H-LSFR-OH)	>100 µg/mL	>100 µg/mL
CSCC[C@H](NC(=O)[C@H](CO)NC(=O)[C@H](CO)NC(C)=O)C(=O)N[C@@H](CCCCN)C(=O)N[C@@H](CC(C)C)C(=O)N[C@@H](CO)C(=O)N[C@@H](Cc1ccccc1)C(=O)N[C@@H](CCCNC(=N)N)C(=O)N[C@@H](C)C(=O)N[C@@H](CCCNC(=N)N)C(=O)NCC(=O)N[C@@H](Cc1ccc(O)cc1)C(=O)NCC(=O)N[C@@H](Cc1ccccc1)C(=O)N[C@@H](CCCNC(=N)N)C(=O)O [Peptide P12] (Ac-SSMKLSFRARGYGFR-OH; C-terminus assumed)	>100 µg/mL	>100 µg/mL
CSCC[C@H](NC(=O)[C@H](CO)NC(=O)[C@H](CO)NC(C)=O)C(=O)N[C@@H](CCCCN)C(=O)N[C@@H](CC(C)C)C(=O)N[C@@H](CO)C(=O)N[C@@H](Cc1ccccc1)C(=O)N[C@@H](CCCNC(=N)N)C(=O)O [Peptide P15] (Ac-SSMKLSFR-OH)	>100 µg/mL	>100 µg/mL
CC(C)C[C@@H](NC(=O)[C@H](N)CCCNC(=N)N)C(=O)N[C@H](CO)C(=O)N[C@H](Cc1ccccc1)C(=O)N[C@H](CCCNC(=N)N)C(=O)N[C@H](C)C(=O)N[C@H](Cc1c[nH]c2ccccc12)C(=O)O [Peptide P6] (H-[dR][dL][dS][dF][dR][dA][dW]-OH; N-terminus and C-terminus assumed)	>100 µg/mL	>100 µg/mL
